Measurements published in patent US20250009844A1, “MATURATION OF MUCOSAL DEFENSE AND GUT/LUNG FUNCTION IN THE PRETERM INFANT” (Novozymes A/S, priority 2017, published 2025).
“Also recorded” adds a separate entry of the source. No end group written: not given here.

Tests used:
Assay type in all cases: in vivo
[1] = system: BALB/c mice; experiment: Therapeutic intervention in murine house dust mite/Freund's complete adjuvant driven model of allergic asthma (Example 6); conditions: for Increase of airway resistance (AHR): vs HDM challenged vehicle
Method: Treatment regime: Female 7-10 weeks old BALB/c mice were randomly allocated into 6 study groups one day prior to study start and subcutaneously (SC) sensitized to house dust mite (100 μg HDM in 200 μL saline plus Freund's complete adjuvant in 0.9% saline). Mice were then intranasally (IN) challenged with HDM on day 14 (HDM 25 μg in 50 μL of saline). Dexamethasone was administered orally (1 mg/kg BID; 50 μL phosphate buffered saline (PBS)) on day 14. hBD-2 was administered IN or orally (1.7 mg/kg TID IN; 0.4 mg/kg TID IN; 0.4 mg/kg TID orally, 50 μL phosphate buffered saline) on day 14. The initial dose was administered 60 minutes prior to challenge, and the subsequent two doses approximately 6 hours apart (FIG. 3).
Airway inflammation: At 48 hours post challenge, bronchoalveolar lavage was performed washing the lungs with 3 volumes of cold PBS (0.4; 0.3 and 0.3 mL, total 1 mL). Total and differential leucocyte cell counts were determined on an automated haematological analyser Sysmex XT-2000iV.
Data are represented as airway resistance at […] methacholine and as dose responsive curves. Lung sampling for cytokine analysis: After completion of every BAL, lungs were removed from the thorax, snap frozen in liquid nitrogen and stored frozen at −80 degrees Celsius until analysis of cytokine concentration of IL-1β, TNF-α, IL-6, IL-10 and IFNγ by ELISA.

[2] = system: SCID mice; experiment: Therapeutic, murine, 14 weeks, CD4+CD25+ T cell transfer induced colitis model (Example 4)
Source text: Treatment regime: 70 female BALB/c mice housed in groups of five per cage were allocated to 7 different treatment groups. Colitis was induced in SCID mice by transplantation of CD4+CD25 Tcells from BALB/c mice. Lymphocytes isolated from spleen and lymph nodes from BALB/c mice were subjected to negative selection of CD4+Tcells. Afterwards, CD4+CD25+cells were positively isolated by binding to the beads from the CD4+Tcell suspensions and the CD4+CD25—were collected from the supernatant. The animals were treated with hBD-2, 0.1 mg/kg s.c. once daily 86consecutive days from day 7 (OD); 1 mg/kg s.c. OD or 3 mg/kg s.c. OD;with mouse anti TNFa 100 μg/mouse s.c. twice weekly (enbrel); with dexamethasone 0.3 mg/kg intraperitoneally OD (dex); with PBS s.c. as vehicle from day 7 and 86 consecutive days (vehicle) or sham treated (sham).
Treatment groups: • 1. 0.1 mg/kg hBD-2, once daily subcutaneously (n=11) • 2. 1 mg/kg hBD-2, once daily subcutaneously (n=11) • 3. 3 mg/kg hBD-2, once daily subcutaneously (n=11) • 4. PBS (hBD-2 vehicle), once daily subcutaneously (n=11) • 5. 0.3 mg/kg Dexamethasone, once daily intraperitoneally (n=11) • 6. 100 μg/mouse soluble human 75-kilodalton TNF receptor linked to Fc portion of IgG1 (Enbrel), twice a week subcutaneously (n=11) • 7. Sham treated group (n=6)
Clinical assessment was based on body weight loss, stool consistency and presence of blood per rectum. The animals were sacrificed on day 95 and colon removed for assessment of weight and myeloperoxidase activity.

[3] = system: microbiota of the intestine; experiment: Therapeutic high fat diet model in diet-induced obese mice, 16S microbial analyses (Example 2)
Source text: The overall design of the study is shown in FIG. 1, lower panel, “Therapeutic study”. Mice and diets. The experiment elucidates the effect of hBD-2 and HD5 on the microbiota in diet-induced obese mice. A run-in period of 13 weeks where mice were fed a very HFD (60% energy from fat) preceded the intervention. Only mice meeting the criteria of a minimum of 12 gram weight gain (approximately 50% of initial bodyweight) during the run-in period were included in the final analyses. […] They were exposed to all experimental tests, but excluded from the analyses.
Treatment regimen. Before the intervention all mice were MR scanned. Cages of mice were allocated to experimental groups based on their fat mass. All subsequent measures were paired with data from the same mouse before the intervention. A LFD (low fat diet) reference group was running in parallel. As controls for the intervention 2 additional groups were included: a) very HFD and b) LFD. Experimental mice stayed on the very HFD during the intervention. The mice were on the experimental diet for 10 weeks. They were co-housed throughout the experiment, 4 mice per cage, 3 cages per group. All tests ran over 3 days, 1 cage per group per day.
Microbial analyses were carried out to study the microbiota of the intestine. Longitudinal 16S characterization was conducted on 4 paired samples from 60 mice, 240 samples in total. Each mouse was sampled prior to diet change, 1 week post diet change, 4 weeks post diet change and at termination, thus ensuring a thorough characterization of the faecal microbiota as a result of defensin treatment.

[4] = hBD-2 intranasal, both doses, dexamethasone 1 mg/kg BID orally
[5] = same three dosing regimens, sacrifice day 95

human beta defensin 2 (GIGDPVTCLKSGAICHPVFCPRRYKQIGTCGLPGTKCCKKP; ends and bridges not checked; cysteine pairing not given here; listed as Homo sapiens) [hBD-2]
Total cell count in BALF ([1]; 48 hours post challenge, hBD-2 intranasal, both doses (0.4 mg/kg/day TID and 1.7 mg/kg/day TID), dexamethasone 1 mg/kg BID orally): significantly inhibited total, neutrophil and macrophage cell counts | Eosinophil count in BALF [1, 4]: trend towards lowering of eosinophils | Macrophage count in BALF [1, 4]: significantly inhibited total, neutrophil and macrophage cell counts | Neutrophil count in BALF [1, 4]: significantly inhibited total, neutrophil and macrophage cell counts | TNF-α level in lung tissue homogenate ([1]; intranasal hBD-2): not significantly different from the control | Decrease of pulmonary compliance ([1]; intranasal hBD-2 TID on day 14): effectively inhibited | Increase of airway resistance (AHR) ([1]; intranasal hBD-2 TID on day 14): effectively inhibited increase of airway resistance | Decrease of pulmonary compliance ([1]; oral hBD-2 0.4 mg/kg TID on day 14): effectively inhibited | Increase of airway resistance (AHR) ([1]; oral on day 14: hBD-2 0.4 mg/kg TID, dexamethasone 1 mg/kg BID): effectively inhibited increase of airway resistance | TNF-α level in lung tissue homogenate ([1]; oral: hBD-2 0.4 mg/kg TID, dexamethasone 1 mg/kg BID, vs HDM/vehicle control): significantly reduced TNF-α | Clinical score (body weight loss, stool consistency, blood per rectum) ([2]; hBD-2 1 mg/kg s.c. OD, Dexamethasone 0.3 mg/kg i.p. OD, Enbrel 100 μg/mouse s.c. twice weekly, from day 7): statistically significant and similar effect on clinical score; also recorded: on par with 100 μg/mouse anti TNF-α s.c. twice weekly (Enbrel) and 0.3 mg/kg dexamethasone | Colon weight [2, 5]: statistically significant and similar effect on colon weight; also recorded: on par with 100 μg/mouse anti TNF-α s.c. twice weekly (Enbrel) and 0.3 mg/kg dexamethasone | Myeloperoxidase activity in intestinal tissue [2, 5]: statistically significant and similar effect; also recorded: on par with 100 μg/mouse anti TNF-α s.c. twice weekly (Enbrel) and 0.3 mg/kg dexamethasone | Relative abundance of Bifidobacteriaceae ([3]; colon, hBD-2 p<0.04): dramatically and statistically significant increased the relative abundance of Bifidobacteriaceae | Abundance of Alloprevotella ([3]; colon, therapeutic intervention, HD5 p<0.02): no influence on Alloprevotella abundance | Relative abundance of Bifidobacteriaceae ([3]; small intestine, hBD-2 p<0.0001): dramatically and statistically significant increased the relative abundance of Bifidobacteriaceae
